Assay results: patent US20260226064A1, “POLYCYCLIC COMPOUND FOR TREATING NEUROLOGICAL DISEASES AND TUMORS” (Shanghai Institute of Organic Chemistry, Chinese Academy of …, priority 2023, published 2026)
Like-named read-outs stand apart in the source and are kept apart here.

Columns and labels:
[1] = test system: acetylated microtubule in HEK293T cells; assay: Microtubule-Stabilizing Activity Assay (acetylated microtubule immunoblot, HEK293T, colchicine challenge); type: cell-based; conditions: 1 h pre-incubation, then colchicine 1 μM 3 h, relative to CNDR-51657 at 500 nM = 1.00; for Microtubule-Stabilizing Activity 50 nM: compound 50 nM; for Microtubule-Stabilizing Activity 500 nM: compound 500 nM
Method in brief: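 HEK293T cells pretreated with compound or DMSO 1 h at 37 °C, then challenged with 1 μM colchicine for 3 h. Lysates (RIPA plus 1 μM trichostatin A) immunoblotted for acetylated and α-tubulin, quantified by densitometry. Activity expressed relative to CNDR-51657 at 500 nM set as 1.00.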

[2] = Mouse Oral Pharmacokinetic Study; type: in vivo; conditions: mouse, male CD1 mice, oral gavage 10 mg/kg; for Kp at 4 h: brain/plasma, read-out: Cbrain/Cplasma; for AUC(0-t) / Cmax / Tmax: plasma; for AUC(0-t): 0-4 h, read-out: AUC0-4h; for Cmax: read-out: Cmax; for Tmax: read-out: Tmax
Description: Healthy male CD1 mice were used as experimental animals. The drug was administered by oral gavage at a dose of 10 mg/kg with a dosing volume of 10 mL/kg. Drug preparation: 10 mg of the compound was placed in 10 mL of 50% PEG400 or 20% HPb-cyclodextrin, ground and shaken to ensure uniform distribution of the compound in small particle size, followed by oral administration. Blood samples were collected at 30 min, 1 h, 2 h, and 4 h post-dose, and brain tissues were sampled at 4 h. EDTA dipotassium salt was added to the blood samples, and plasma was obtained after centrifugation. The supernatant was analyzed after dilution with 5 volumes of acetonitrile and centrifugation. The brain tissue homogenate was diluted with 3.5 volumes of acetonitrile, centrifuged, and the supernatant was collected for analysis. The samples were then analyzed by liquid chromatography-tandem mass spectrometry (LC-MS/MS): the instrument was AB Sciex 3500; the mobile phase consisted of 0.1% formic acid in water (A)/0.1% formic acid in acetonitrile (B), with gradient elution.

[3] = brain tissue at 4 h, read-out: Cbrain@4h
[4] = plasma at 4 h, read-out: Cpasma@4h

SMILES	Microtubule-Stabilizing Activity 50 nM [1]	Microtubule-Stabilizing Activity 500 nM [1]	Kp at 4 h [2]	concentration at 4 h [2, 3] [ng/mL]	concentration at 4 h [2, 4] [ng/mL]	AUC(0-t) [2] [ng·h/mL]	Cmax [2] [ng/mL]	Tmax [2] [min]
C[C@H](Nc1c(-c2c(F)cc(OCC3[C@H]4CN(C)C[C@@H]34)cc2F)c(Cl)nc2ncnn12)C(F)(F)F (stereo partly drawn) [Example 25, 5-Chloro-6-(2,6-difluoro-4-(((1R,5S,6r)-3-methyl-3-azabicyclo[3.1.0]hexan-6-yl)methoxy)phenyl)-N—((S)-1,1,1-trifluoropropan-2-yl)-[1,2,4]triazolo[1,5-a]pyrimidin-7-amine]	0.96	1.31	1.45	198	137	939	399	45
C[C@@H](Nc1c(-c2c(F)cc(C#C[C@@H]3[C@H]4CN(C)C[C@@H]34)cc2F)c(Cl)nc2ncnn12)C1CCC1 [Example 46, 5-Chloro-N—((R)-1-cyclobutylethyl)-6-(2,6-difluoro-4-(((1R,5S,6s)-3-methyl-3-azabicyclo[3.1.0]hexan-6-yl)ethynyl)phenyl)-[1,2,4]triazolo[1,5-a]pyrimidin-7-amine]	1.76	1.44	1.09	356	325	1600	572	30
C[C@H](Nc1c(-c2c(F)cc(C#CC3[C@H]4CN(C)C[C@@H]34)cc2F)c(Cl)nc2ncnn12)C(F)(F)F (stereo partly drawn) [Example 48, 5-Chloro-6-(2,6-difluoro-4-(((1R,5S,6s)-3-methyl-3-azabicyclo[3.1.0]hexan-6-yl)ethynyl)phenyl)-N—((S)-1,1,1-trifluoropropan-2-yl)-[1,2,4]triazolo[1,5-a]pyrimidin-7-amine]	1.42	1.66	2.83	1020	359	1810	591	45
CC(C)[C@@H](C)Nc1c(-c2c(F)cc(C#C[C@@H]3[C@H]4CN(C)C[C@@H]34)cc2F)c(Cl)nc2ncnn12 [Example 55, 5-Chloro-6-(2,6-difluoro-4-(((1R,5S,6s)-3-methyl-3-azabicyclo[3.1.0]hexan-6-yl)ethynyl)phenyl)-N—((R)-3-methylbutan-2-yl)-[1,2,4]triazolo[1,5-a]pyrimidin-7-amine]	1.8	1.62	1.22	375	306	1450	496	30
Cc1nc2ncnn2c(N[C@H](C)C(C)C)c1-c1c(F)cc(OCC2[C@H]3CN(C)C[C@@H]23)cc1F (stereo partly drawn) [Example 57, 6-(2,6-Difluoro-4-(((1R,5S,6r)-3-methyl-3-azabicyclo[3.1.0]hexan-6-yl)methoxy)phenyl)-5-methyl-N—((R)-3-methylbutan-2-yl)-[1,2,4]triazolo[1,5-a]pyrimidin-7-amine]		1.90	0.96	102	106	525	161	30
CN1C[C@@H]2[C@@H](/C=C/c3cc(F)c(-c4c(Cl)nc5ncnn5c4NCC(F)(F)F)c(F)c3)[C@@H]2C1 [Example 58]	1.09	1.63	3.58	222	62	368	115	60
Cc1nc2ncnn2c(NCC(F)(F)F)c1-c1c(F)cc(OC[C@@H]2[C@H]3CN(C)C[C@@H]23)cc1F [Example 60]	0.95	1.24	1.32	62	47	696	379	30
CC(C)[C@@H](C)Nc1c(-c2c(F)cc(F)cc2F)c(Cl)nc2ncnn12 [Intermediate 4, (R)-5-Chloro-N-(3-methylbutan-2-yl)-6-(2,4,6-trifluorophenyl)-[1,2,4]triazolo[1,5-a]pyrimidin-7-amine, reference compound]	0.2-0.3	1.00	0	0	3	57	49	30
